Experimental data reported in US7834213B2, “Colorant compound and method of manufacturing the same as well as blue resist composition for use in color filter containing the same” (Canon Kabushiki Kaisha, priority 2005, dated 2010).

Key:
[1] = Evaluation of solubility of colorant compounds to cyclohexanone; format: physicochemical; details: rank A/B/C
[2] = Evaluation of spectral characteristics (UV visible absorption spectrum in cyclohexanone); format: physicochemical; details: for absorbance ratio: absorbance at largest absorption wavelength (500 to 650 nm) / absorbance at smallest absorption wavelength (400 to 500 nm), in cyclohexanone, room temperature; for λmax [nm]: absorption peak wavelength, dissolved in cyclohexanone, absorbance regulated to 2.0, room temperature
Protocol: The colorant compounds represented by the formula (10) was dissolved in cyclohexanone and regulated so as to show an absorbance of 2.0. […] The absorption peak wavelength (λmax [nm]) was determined from the spectrum obtained by the observation. The spectral characteristics of the colorant compound were evaluated by the absorbance ratio of the largest absorption wavelength of the spectrum in the range of 500 to 650 nm to the smallest absorption wavelength of the spectrum in the range of 400 to 500 nm (the absorbance at the largest absorption wavelength/the absorbance at the smallest absorption wavelength).
While the lightness can be evaluated by means of the Y value of the XYZ standard […] system established by CIE (Commission Internationale de l'Eclairage), the lightness was evaluated by means of the absorbance ratio in this example because the Y value can vary remarkably when the hue is shifted slightly.

Row | SMILES | solubility [1] | absorbance ratio [2] | λmax [nm] [2]
1 | CCCCC(CC)CN(CC(CC)CCCC)S(=O)(=O)c1cccc(CN(CC)c2ccc(C(=C3C=CC(=[N+](CC)Cc4cccc(S(=O)(=O)N(CC(CC)CCCC)CC(CC)CCCC)c4)C=C3)c3ccccc3S(=O)(=O)[O-])cc2)c1 (centres unmarked) [compound (10)] | A (The solubility to cyclohexanone is not lower than 10%.) | 433 | 619 nm
2 | CCCCNc1ccc(NCCCC)c2c1C(=O)c1ccccc1C2=O [compound (28), C. I. Solvent Blue 35, reference compound] |  | 77 | 620 nm
